Test results taken from patent publication US11786519B2, “Apoptosis-inducing agents for the treatment of cancer and immune and autoimmune diseases” (AbbVie Inc., priority 2011, dated 2023).

target: Bcl-xL (Homo sapiens, UniProt Q07817); assay: TR-FRET binding assay, competition with F-Bak for Bcl-xL; conditions: competition with F-Bak probe, GST-Bcl-xL
Description: Determination of the utility of compounds having Formula (I) as binders to and inhibitors of anti-apoptotic Bcl-xL proteins was performed using the Time Resolved-Fluorescence Resonance Energy Transfer (TR-FRET) Assay. Tb-anti-GST antibody was purchased from Invitrogen (Catalog No. PV4216).
The measurement of competition of compounds of the invention with F-Bak for a Bcl-2 family protein (Bcl-xL) binding site using a Time Resolved Fluorescence Resonance Energy Transfer (TR-FRET) binding assay:
Test compounds were serially diluted in DMSO starting at 50 µM (2× starting concentration; 10% DMSO) and 10 μL transferred into a 384-well plate.
The samples are then mixed on a shaker for 1 minute then incubated for an additional 2 hours at room temperature. For each assay plate, a probe/antibody and protein/antibody/probe mixture were included as a negative and a positive control, respectively. Fluorescence was measured on the ENVISION plate reader (Perkin Elmer) using a 340/35 nm excitation filter and 520/525 (F-Bak) and 495/510 nm ([…]) emission filters. Dissociation constants (Ki) were determined using Wang's equation (Wang, Z. X. An exact mathematical expression for describing competitive binding of two different ligands to a protein molecule. FEBS Lett. 1995 360:111-114). The TR-FRET assay can be performed in the presence of varying concentrations of human serum (HS) or fetal bovine serum (FBS).

Sequence of Bcl-xL (Q07817 whole entry): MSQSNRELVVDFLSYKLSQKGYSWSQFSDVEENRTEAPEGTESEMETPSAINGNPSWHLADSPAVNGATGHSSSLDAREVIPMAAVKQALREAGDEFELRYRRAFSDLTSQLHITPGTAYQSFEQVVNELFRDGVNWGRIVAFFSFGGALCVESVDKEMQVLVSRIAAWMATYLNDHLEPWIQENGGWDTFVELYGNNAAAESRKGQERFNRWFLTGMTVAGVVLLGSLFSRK

Q: How did the Ki turn out when `Cc1c(-c2ccc(N3CCc4cccc(C(=O)Nc5nc6ccccc6s5)c4C3)nc2C(=O)O)nnn1CC12CC3CC(CC(C3)C1)C2` [Example 57, 6-[8-(1,3-benzothiazol-2-ylcarbamoyl)-3,4-dihydroisoquinolin-2(1H)-yl]-3-[5-methyl-1-(tricyclo[3.3.1.1^3,7]dec-1-ylmethyl)-1H-1,2,3-triazol-4-yl]pyridine-2-carboxylic acid] was run?
A: < 0.1 nM

Q: Which Ki does the source give for `Cc1c(-c2ccc(N3CCc4cccc(C(=O)Nc5nc6ccccc6s5)c4C3)nc2C(=O)O)ccnc1OCC12CC3CC(CC(C3)C1)C2` [Example 27, 6-[8-(1,3-benzothiazol-2-ylcarbamoyl)-3,4-dihydroisoquinolin-2(1H)-yl]-3′-methyl-2′-(tricyclo[3.3.1.1^3,7]dec-1-ylmethoxy)-3,4′-bipyridine-2-carboxylic acid] here?
A: 0.1 nM

Q: For `Cc1c(OCC23CC4CC(CC(C4)C2)C3)cccc1-c1ccc(N2CCc3cccc(C(=O)Nc4nc5ccccc5s4)c3C2)nc1C(=O)O` [Example 21, 6-[8-(1,3-benzothiazol-2-ylcarbamoyl)-3,4-dihydroisoquinolin-2(1H)-yl]-3-{2-methyl-3-[tricyclo[3.3.1.1^3,7]dec-1-ylmethoxy]phenyl}pyridine-2-carboxylic acid], which Ki is on record?
A: 0.6 nM

Q: Which Ki does the source give for `COC12CC3CC(CC(Cn4cc(-c5ccc(N6CCc7cccc(C(=O)Nc8nc9ccccc9s8)c7C6)nc5C(=O)O)cn4)(C3)C1)C2` [Example 7, 6-[8-(1,3-benzothiazol-2-ylcarbamoyl)-3,4-dihydroisoquinolin-2(1H)-yl]-3-(1-{[3-methoxytricyclo[3.3.1.1^3,7]dec-1-yl]methyl}-1H-pyrazol-4-yl)pyridine-2-carboxylic acid] here?
A: < 0.1 nM

Q: For `O=C(Nc1nc2ccccc2s1)c1cccc2c1CN(c1ccc(-c3ccc(=O)n(CC45CC6CC(CC(C6)C4)C5)c3)c(C(=O)O)n1)CC2` [Example 85, 6-[8-(1,3-benzothiazol-2-ylcarbamoyl)-3,4-dihydroisoquinolin-2(1H)-yl]-6′-oxo-1′-(tricyclo[3.3.1.1^3,7]dec-1-ylmethyl)-1′,6′-dihydro-3,3′-bipyridine-2-carboxylic acid], which Ki is on record?
A: < 0.1 nM

Q: How did the Ki turn out when `Cc1c(-c2ccc(N3CCc4cccc(C(=O)Nc5nc6ncccc6s5)c4C3)nc2C(=O)O)cnn1CC12CC3CC(CC(C3)C1)C2` [Example 30, 3-[5-methyl-1-(tricyclo[3.3.1.1^3,7]dec-1-ylmethyl)-1H-pyrazol-4-yl]-6-[8-([1,3]thiazolo[4,5-b]pyridin-2-ylcarbamoyl)-3,4-dihydroisoquinolin-2(1H)-yl]pyridine-2-carboxylic acid] was run?
A: < 0.1 nM

Q: `COC12CC3(C)CC(C)(CC(Cn4ncc(-c5ccc(N6CCc7cccc(C(=O)Nc8nc9ccccc9s8)c7C6)nc5C(=O)O)c4C)(C3)C1)C2` [Example 38, 6-[8-(1,3-benzothiazol-2-ylcarbamoyl)-3,4-dihydroisoquinolin-2(1H)-yl]-3-(1-{[3-methoxy-5,7-dimethyltricyclo[3.3.1.1^3,7]dec-1-yl]methyl}-5-methyl-1H-pyrazol-4-yl)pyridine-2-carboxylic acid] was tested. Which Ki did it give?
A: < 0.1 nM

Q: Which Ki does the source give for `CC(C)OC12CC3CC(CC(Cn4cc(-c5ccc(N6CCc7cccc(C(=O)Nc8nc9ccccc9s8)c7C6)nc5C(=O)O)cn4)(C3)C1)C2` [Example 12, 6-[8-(1,3-benzothiazol-2-ylcarbamoyl)-3,4-dihydroisoquinolin-2(1H)-yl]-3-(1-{[3-(propan-2-yloxy)tricyclo[3.3.1.1^3,7]dec-1-yl]methyl}-1H-pyrazol-4-yl)pyridine-2-carboxylic acid] here?
A: < 0.1 nM

Q: `CNCCOCCOCCOC12CC3CC(CC(Cn4ncc(-c5ccc(N6CCc7cccc(C(=O)Nc8nc9ccccc9s8)c7C6)nc5C(=O)O)c4C)(C3)C1)C2` [Example 83, 6-[8-(1,3-benzothiazol-2-ylcarbamoyl)-3,4-dihydroisoquinolin-2(1H)-yl]-3-(5-methyl-1-{[3-(2-{2-[2-(methylamino)ethoxy]ethoxy}ethoxy)tricyclo[3.3.1.1^3,7]dec-1-yl]methyl}-1H-pyrazol-4-yl)pyridine-2-carboxylic acid] was tested. Which Ki did it give?
A: < 0.1 nM

Q: How did the Ki turn out when `O=C(Nc1nc2ccccc2s1)c1cccc2c1CN(c1ccc(-c3cnn(CC45CC6CC(CC(C6)C4)C5)c3)c(C(=O)O)n1)CC2` [Example 1, 6-[8-(1,3-benzothiazol-2-ylcarbamoyl)-3,4-dihydroisoquinolin-2(1H)-yl]-3-{1-[tricyclo[3.3.1.1^3,7]dec-1-ylmethyl]-1H-pyrazol-4-yl}pyridine-2-carboxylic acid] was run?
A: < 0.1 nM

Q: For `Cc1c(NC(=O)C23CC4CC(CC(C4)C2)C3)cccc1-c1ccc(N2CCc3cccc(C(=O)Nc4nc5ccccc5s4)c3C2)nc1C(=O)O` [Example 50, 6-[8-(1,3-benzothiazol-2-ylcarbamoyl)-3,4-dihydroisoquinolin-2(1H)-yl]-3-(2-methyl-3-{[tricyclo[3.3.1.1^3,7]dec-1-ylcarbonyl]amino}phenyl)pyridine-2-carboxylic acid], which Ki is on record?
A: 9 nM

Q: For `COCCOC12CC3CC(CC(Cn4cc(-c5ccc(N6CCc7cccc(C(=O)Nc8nc9ccccc9s8)c7C6)nc5C(=O)O)cn4)(C3)C1)C2` [Example 8, 6-[8-(1,3-benzothiazol-2-ylcarbamoyl)-3,4-dihydroisoquinolin-2(1H)-yl]-3-(1-{[3-(2-methoxyethoxy)tricyclo[3.3.1.1^3,7]dec-1-yl]methyl}-1H-pyrazol-4-yl)pyridine-2-carboxylic acid], which Ki is on record?
A: < 0.1 nM

Q: How did the Ki turn out when `O=C(Nc1nc2ccccc2s1)c1cccc2c1CN(c1ccc(-c3cnn(CC4C5CC6CC(C5)CC4C6)c3)c(C(=O)O)n1)CC2` (stereo not shown) [Example 10, 6-[8-(1,3-benzothiazol-2-ylcarbamoyl)-3,4-dihydroisoquinolin-2(1H)-yl]-3-[1-(tricyclo[3.3.1.1^3,7]dec-2-ylmethyl)-1H-pyrazol-4-yl]pyridine-2-carboxylic acid] was run?
A: < 0.1 nM

Q: With `COC12CC3CC(CC(Cn4ncc(-c5ccc(N6CCc7cccc(C(=O)Nc8nc9ccccc9s8)c7C6)nc5C(=O)NS(=O)(=O)C5CC5)c4C)(C3)C1)C2` [Example 41, N-(1,3-benzothiazol-2-yl)-2-{6-[(cyclopropylsulfonyl)carbamoyl]-5-(1-{[3-methoxytricyclo[3.3.1.1^3,7]dec-1-yl]methyl}-5-methyl-1H-pyrazol-4-yl)pyridin-2-yl}-1,2,3,4-tetrahydroisoquinoline-8-carboxamide] as the compound, how does the Ki read?
A: < 0.1 nM

Q: With `COCCC1(Cn2cc(-c3ccc(N4CCc5cccc(C(=O)Nc6nc7ccccc7s6)c5C4)nc3C(=O)O)cn2)C2CC3CC(C2)CC1C3` (stereo not shown) [Example 56, 6-[8-(1,3-benzothiazol-2-ylcarbamoyl)-3,4-dihydroisoquinolin-2(1H)-yl]-3-(1-{[2-(2-methoxyethyl)tricyclo[3.3.1.1^3,7]dec-2-yl]methyl}-1H-pyrazol-4-yl)pyridine-2-carboxylic acid] as the compound, how does the Ki read?
A: < 0.1 nM

Q: How did the Ki turn out when `COC12CC3CC(CC(Cn4ncc(-c5ccc(N6CCc7cccc(C(=O)Nc8nc9ccccc9s8)c7C6)nc5C(=O)NS(=O)(=O)N5CCOCC5)c4C)(C3)C1)C2` [Example 39, N-(1,3-benzothiazol-2-yl)-2-{5-(1-{[3-methoxytricyclo[3.3.1.1^3,7]dec-1-yl]methyl}-5-methyl-1H-pyrazol-4-yl)-6-[(morpholin-4-ylsulfonyl)carbamoyl]pyridin-2-yl}-1,2,3,4-tetrahydroisoquinoline-8-carboxamide] was run?
A: 12 nM
